According to patent publication US5439816A, “Carboxymethylcellulase isolated from bacillus sp. PKM-5430 (FERM BP-4087)” (Kao Corporation, priority 1991, dated 1995):
Read-outs that look alike come from different tables or passages of the source.

Tests used:
[1] = tested on: Carboxymethylcellulase 5430; assay: Effects of metal ions on carboxymethylcellulase activity of Carboxymethylcellulase 5430; type: biochemical, Bacillus sp. PKM-5430; details: for Relative activity (%): 20 minutes at 40° C., pH 9.0, none = 100
Procedure: (§1) Activities were determined by the DNS method (J. R. Summer and G. F. Somers, Laboratory Experiments in Biological Chemistry, Academic Press, New York, U.S.A., 1944). Namely, 0.1 ml of a suitably diluted enzyme solution was added to 0.9 ml of a 1.1% (w/v) solution of a CMC (A01MC) substrate in 0.1M glycine-NaOH buffer (pH: 9.0). After a 20-minute reaction at 40° C., 1 ml of 0.05% (w/v) 3,5-dinitrosalicylic acid solution (product of Wako Pure Chemical Industries, Ltd.) was added, and the resulting mixture was immediately placed in a boiling water bath for 5 minutes, followed by cooling in an iced water bath. Then, 4 ml of deionized water was added further, afterwhich, colorimetry was conducted by measuring an absorbance at 535 nm. With respect to enzymatic activity, the amount of enzyme, which liberates reducing sugars corresponding to 1 μmole of glucose for 1 minute, was defined as 1 unit.
Among the various metal ions tested, Hg^2+, at 1 mM, inhibited the activity of the enzyme by about 75%. On the contrary, Co^+2, at 1 mM stimulated the activity of the enzyme by about 30% and Mn^+2, at 1 mM, also stimulated the activity by about 50%.

[2] = tested on: Carboxymethylcellulase 5812; assay: Effects of metal ions on carboxymethylcellulase activity of Carboxymethylcellulase 5812; type: biochemical, Bacillus sp. PKM-5812; details: for Relative activity (%): 20 minutes at 40° C., pH 9.0, none = 100
Procedure: as §1
Among the various metal ions tested, Hg^2+, at 1 mM, inhibited the activity of the enzyme by about 75%. On the contrary, Co^+2, at 1 mM stimulated the activity of the enzyme by about 50%, and Mn^+2, at 1 mM, also stimulated the activity by 53%.

[3] = tested on: Carboxymethylcellulase 5430; type: biochemical, Bacillus sp. PKM-5430
Procedure: as §1
(§2) However, the activity of the enzyme was not inhibited by the other inhibitors.
(§3) *: The enzyme was pretreated at pH 5.5 (50 mM acetate buffer).

[4] = tested on: Carboxymethylcellulase 5812; type: biochemical, Bacillus sp. PKM-5812
Procedure: as §1, §2, §3

[5] = tested on: Carboxymethylcellulase 5430; assay: Effects of chelating agents, thiol reagents, additives and proteinases on Carboxymethylcellulase 5430; type: biochemical, Bacillus sp. PKM-5430; details: for stimulated the activity of the enzyme by: added at 1 mM; for Relative activity (%): none = 100
Procedure: as §1
On the other hand, 2-mercaptoethanol and dithiothreitol, each added at 1 mM, stimulated the activity of the enzyme by 39% and 50%, respectively. It was not observed that the proteinases such as alkalase, maxatase, savinase and Protease API-21 inactivated the enzyme of this invention under this reaction conditions.

[6] = tested on: Carboxymethylcellulase 5812; assay: Effects of chelating agents, thiol reagents, additives and proteinases on Carboxymethylcellulase 5812; type: biochemical, Bacillus sp. PKM-5812; details: for stimulated the activity of the enzyme by: added at 1 mM; for Relative activity (%): none = 100
Procedure: as §1
On the other hand, 2-mercaptoethanol and dithiothreitol, each added at 1 mM, stimulated the activity of the enzyme by 52% and 84%, respectively. It was not observed that the proteinases such as alkalase, maxatase, savinase and Protease API-21 inactivated the enzyme of this invention under this reaction conditions.

[7] = tested on: Carboxymethylcellulase 5430; assay: Effects of surfactants on carboxymethylcellulase activity of Carboxymethylcellulase 5430; type: biochemical, Bacillus sp. PKM-5430; details: for Relative activity (%): surfactant 0.05%, 20 minutes at 40° C., pH 9.0, none = 100
Procedure: as §1
In particular, SDS and the fatty acid salt stimulated the activity of the enzyme by 26% and 45%, respectively.

[8] = tested on: Carboxymethylcellulase 5812; assay: Effects of surfactants on carboxymethylcellulase activity of Carboxymethylcellulase 5812; type: biochemical, Bacillus sp. PKM-5812; details: for Relative activity (%): surfactant 0.05%, 20 minutes at 40° C., pH 9.0, none = 100
Procedure: as §1
In particular, SDS and the fatty acid salt stimulated the activity of the enzyme by 21% and 23%, respectively.

[9] = inhibitor 1.0 mM, 20 minutes at 40° C., pH 9.0, none = 100
[10] = reagent 1 mM, 20 minutes at 40° C., pH 9.0
[11] = inhibitor 0.1 mM, enzyme pretreated at pH 5.5 (50 mM acetate buffer), none = 100
[12] = metal ion 1 mM, listed as Fe^3+
[13] = reagent 0.01%, 20 minutes at 40° C., pH 9.0

With `[Co+2]` [Co^2+] the “stimulated the activity of the enzyme by” value ([1]; at 1 mM) was “about 30%”, the “Relative activity (%)” value ([1]; metal ion 1 mM) was 149% and the “stimulated the activity of the enzyme by” value ([2]; at 1 mM) was “about 50%”. The “Relative activity (%)” value ([2]; metal ion 1 mM) was 150%.

In the case of `O=C(O)c1cc[c]([Hg][Cl])cc1` [4-Chloromercuribenzoic acid], the “Relative activity (%)” value [3, 9] is reported as 118% and the “Relative activity (%)” value [4, 9] is reported as 105%.

For `OCCS` [2-Mercaptoethanol], the “stimulated the activity of the enzyme by” value [5] was 39%, the “Relative activity (%)” value [5, 10] was 139% and the “stimulated the activity of the enzyme by” value [6] was 52%. The “Relative activity (%)” value [6, 10] was 152%.

`[Pb+2]` [Pb^2+] was tested, and the “Relative activity (%)” value ([1]; metal ion 1 mM) was 81% and the “Relative activity (%)” value ([2]; metal ion 1 mM) was 93%.

For `O[C@H](CS)[C@H](O)CS` (racemic) [Dithiothreitol], the “stimulated the activity of the enzyme by” value [5] was 50%, the “Relative activity (%)” value [5, 10] was 150% and the “stimulated the activity of the enzyme by” value [6] was 84%. The “Relative activity (%)” value [6, 10] was 184%.

In the case of `O=C(O)CN(CCOCCOCCN(CC(=O)O)CC(=O)O)CC(=O)O` [EGTA], the “effect of chelating agents on enzyme activity” value (shortened to “effect of chelating agents”) [5] is reported as “somewhat inhibited”, the “Relative activity (%)” value [5, 10] is reported as 66% and the “effect of chelating agents” value [6] is reported as “somewhat inhibited”. For the same molecule, the “Relative activity (%)” value [6, 10] was 73%.

“sodium linear alkylbenzenesulfonate [LAS]” was tested, and the “effect of surfactants on enzyme activity” value [7] was “either scarcely inhibited or stimulated”, the “Relative activity (%)” value [7] was 105% and the “effect of surfactants on enzyme activity” value [8] was “either scarcely inhibited or stimulated”. The “Relative activity (%)” value [8] was 96%.

In the case of `O=C(O)CN(CCN(CC(=O)O)CC(=O)O)CC(=O)O` [EDTA], the “effect of chelating agents” value [5] is reported as “somewhat inhibited”, the “Relative activity (%)” value [5, 10] is reported as 71% and the “effect of chelating agents” value [6] is reported as “somewhat inhibited”. The “Relative activity (%)” value [6, 10] was 79%.

In the case of `[Mn+2]` [Mn^2+], the “stimulated the activity of the enzyme by” value ([1]; at 1 mM) is reported as “about 50%”, the “Relative activity (%)” value ([1]; metal ion 1 mM) is reported as 130% and the “stimulated the activity of the enzyme by” value ([2]; at 1 mM) is reported as 53%. For the same molecule, the “Relative activity (%)” value ([2]; metal ion 1 mM) was 153%.

With `[Zn+2]` [Zn^2+] the “Relative activity (%)” value ([1]; metal ion 1 mM) was 92% and the “Relative activity (%)” value ([2]; metal ion 1 mM) was 96%.

For `[N-]=[N+]=[N-]` [Sodium azide], the “Relative activity (%)” value [3, 9] was 118% and the “Relative activity (%)” value [4, 9] was 117%.

`[Na+]` [Na^+] was tested, and the “Relative activity (%)” value ([1]; metal ion 50 mM) was 121% and the “Relative activity (%)” value ([2]; metal ion 50 mM) was 120%.

In the case of `c1cnc2c(c1)ccc1cccnc12` [o-Phenanthroline], the “Relative activity (%)” value [5, 10] is reported as 98% and the “Relative activity (%)” value [6, 10] is reported as 100%.

For sodium α-olefin sulfonate [AOS], the “effect of surfactants on enzyme activity” value [7] was “either scarcely inhibited or stimulated”, the “Relative activity (%)” value [7] was 107% and the “effect of surfactants on enzyme activity” value [8] was “either scarcely inhibited or stimulated”. For the same molecule, the “Relative activity (%)” value [8] was 105%.

`CCCCCCCCCCCCOS(=O)(=O)[O-].[Na+]` [SDS, sodium dodecyl sulfate] was tested, and the “effect of surfactants on enzyme activity” value [7] was “either scarcely inhibited or stimulated”, the “stimulated the activity of the enzyme by” value [7] was 26% and the “Relative activity (%)” value [7] was 126%. For the same molecule, the “effect of surfactants on enzyme activity” value [8] was “either scarcely inhibited or stimulated”, the “stimulated the activity of the enzyme by” value [8] was 21% and the “Relative activity (%)” value [8] was 121%.

For “sodium polyoxyethylene alkyl sulfate [ES]”, the “effect of surfactants on enzyme activity” value [7] was “either scarcely inhibited or stimulated”, the “Relative activity (%)” value [7] was 102% and the “effect of surfactants on enzyme activity” value [8] was “either scarcely inhibited or stimulated”. For the same molecule, the “Relative activity (%)” value [8] was 112%.

`[Ca+2]` [Ca^2+] was tested, and the “Relative activity (%)” value ([1]; metal ion 1 mM) was 108% and the “Relative activity (%)” value ([2]; metal ion 1 mM) was 108%.

`[Mg+2]` [Mg^2+] was tested, and the “Relative activity (%)” value ([1]; metal ion 1 mM) was 108% and the “Relative activity (%)” value ([2]; metal ion 1 mM) was 109%.

For `[Al+3]` [Al^3+], the “Relative activity (%)” value ([1]; metal ion 1 mM) was 101% and the “Relative activity (%)” value ([2]; metal ion 1 mM) was 97%.

For “sodium α-sulfonated fatty acid ester [α-SFE]”, the “effect of surfactants on enzyme activity” value [7] was “either scarcely inhibited or stimulated”, the “Relative activity (%)” value [7] was 116% and the “effect of surfactants on enzyme activity” value [8] was “either scarcely inhibited or stimulated”. For the same molecule, the “Relative activity (%)” value [8] was 97%.

In the case of `[Hg+2]` [Hg^2+], the “inhibited the activity of the enzyme by” value ([1]; at 1 mM) is reported as “about 75%”, the “Relative activity (%)” value ([1]; metal ion 1 mM) is reported as 25% and the “inhibited the activity of the enzyme by” value ([2]; at 1 mM) is reported as “about 75%”. For the same molecule, the “Relative activity (%)” value ([2]; metal ion 1 mM) was 27%.

With `O=C1CCC(=O)N1Br` [N-Bromosuccinimide] the “inhibited the activity of this enzyme by” value [3] was 97%, the “Relative activity (%)” value [3, 11] was 4% and the “inhibited the activity of this enzyme by” value [4] was 97%. The “Relative activity (%)” value [4, 11] was 3%.

For `[Fe+2]` [Fe^2+], the “Relative activity (%)” value ([1]; metal ion 1 mM) was 105%, the “Relative activity (%)” value [1, 12] was 110% and the “Relative activity (%)” value ([2]; metal ion 1 mM) was 101%. For the same molecule, the “Relative activity (%)” value [2, 12] was 104%.

In the case of `O=C(O)CI` [Monoiodo acetic acid], the “Relative activity (%)” value ([3]; pH 9) is reported as 117% and the “Relative activity (%)” value ([4]; pH 9) is reported as 104%.

With sodium alkyl sulfate [AS] the “effect of surfactants on enzyme activity” value [7] was “either scarcely inhibited or stimulated”, the “Relative activity (%)” value [7] was 123% and the “effect of surfactants on enzyme activity” value [8] was “either scarcely inhibited or stimulated”. The “Relative activity (%)” value [8] was 112%.

In the case of `[K+]` [K^+], the “Relative activity (%)” value ([1]; metal ion 50 mM) is reported as 116% and the “Relative activity (%)” value ([2]; metal ion 50 mM) is reported as 126%.

For `[Cu+2]` [Cu^2+], the “Relative activity (%)” value ([1]; metal ion 1 mM) was 97% and the “Relative activity (%)” value ([2]; metal ion 1 mM) was 98%.

In the case of `Cl.NO` [Hydroxylamine hydrochloride], the “Relative activity (%)” value [3, 9] is reported as 133% and the “Relative activity (%)” value [4, 9] is reported as 123%.

With `O=S(=O)(F)Cc1ccccc1` [Phenylmethanesulfonyl fluoride, phenylmethanesulfonyl fluoride] the “inhibited the activity of this enzyme by” value [3] was 24%, the “Relative activity (%)” value [3, 9] was 76% and the “Relative activity (%)” value [4, 9] was 107%.

B1: Alkalase: proteinase (protein, UniProt P00780 106-379, looked up)
Subtilisin Carlsberg: AQTVPYGIPLIKADKVQAQGFKGANVKVAVLDTGIQASHPDLNVVGGASFVAGEAYNTDGNGHGTHVAGTVAALDNTTGVLGVAPSVSLYAVKVLNSSGSGSYSGIVSGIEWATTNGMDVINMSLGGASGSTAMKQAVDNAYAKGVVVVAAAGNSGSSGNTNTIGYPAKYDSVIAVGAVDSNSNRASFSSVGAELEVMAPGAGVYSTYPTNTYATLNGTSMASPHVAGAAALILSKHPNLSASQVRNRLSSTATYLGSSFYYGKGLINVEAAAQ
For B1, the “inactivation of the enzyme by proteinases” value ([5]; 20 minutes at 40° C., pH 9.0) was “not observed”, the “Relative activity (%)” value [5, 13] was 111% and the “inactivation of the enzyme by proteinases” value ([6]; 20 minutes at 40° C., pH 9.0) was “not observed”. For the same molecule, the “Relative activity (%)” value [6, 13] was 107%.
